Several values for one entry are separate records, joined by “and”; a condition that tells them apart may be missing. Equal values may be shown once. Read-outs that look alike come from different tables or passages of the source.
Legend:
Plasma protein binding = assay type: in vitro ADME; details: read-out: Bound to plasma proteins
[1] = system: patients with atrial fibrillation at risk of stroke; details: for Stroke, systemic embolism, pulmonary embolism, myocardial infarction death or major bleed, Rate / Stroke, systemic embolism, pulmonary embolism, myocardial infarction death or major bleed, RR: net benefit
Excerpt: Median follow-up was 2.0 years and the primary outcome was stroke or systemic embolism.
Patients were recruited from 951 clinical centers in 44 countries. In brief, patients were eligible if they had atrial fibrillation documented on electrocardiogram at screening or within 6 months; and at least one of the following: prior stroke or transient ischemic attack; left ventricular ejection fraction less than 40%; New York Heart Association heart failure symptoms of Class 2 or greater within 6 months; age at least 75 years; or age at least 65 years with diabetes mellitus, hypertension or coronary artery disease.
The time in therapeutic range was calculated by the method of Rosendaal (Rosendaal F R, et al., A method to determine the optimal intensity of oral anticoagulant therapy, Thromb Haemost, 1993, 69:236-239), excluding INRs from the first week and after discontinuations. […] Concomitant use of aspirin (less than 100 mg/day) or other antiplatelet agents was allowed.
Liver function testing was performed monthly during the first year of follow-up.
The primary study outcome was stroke or systemic embolism. The primary safety outcome was major hemorrhage. Secondary outcomes were stroke, systemic embolism and death. Other outcomes were myocardial infarction, pulmonary embolism, transient ischemic attacks, and hospitalizations. The primary net benefit-risk outcome was the composite of stroke, systemic embolism, pulmonary embolism, myocardial infarction, death or major hemorrhage. Stroke was defined as sudden onset of focal neurological deficit consistent with the territory of a major cerebral artery and categorized as ischemic, hemorrhagic or unspecified. Hemorrhagic transformation of ischemic stroke was not considered as hemorrhagic stroke. Intracranial hemorrhage included hemorrhagic stroke and sub-dural or sub-arachnoid hemorrhage. Systemic embolism was an acute vascular occlusion of an extremity or organ documented by imaging, surgery or autopsy. Major bleeding was defined as a reduction in hemoglobin level of at least […] or transfusion of at least 2 units of blood or symptomatic bleeding in a critical area or organ. Life-threatening bleeding was a subset of major bleeding that included fatal bleeding, symptomatic intracranial bleeding, bleeding with hemoglobin decrease of more than […] or requiring transfusion of more than 4 units of blood or requiring inotropic agents or necessitating surgery. All other bleeding was considered minor.
All primary and secondary outcome events were blindly and doubly adjudicated. An international team of adjudicators reviewed documents in local languages after blinding; or documents were translated by a independent group and blinded centrally. All transient ischemic attacks were reviewed to ensure that strokes had not been missed. To detect possible unreported events, symptom questionnaires were regularly administered to patients, and adverse events and hospitalization reports were scrutinized for unreported primary or secondary outcomes.
If maximum of the two p-values was greater than 0.025, the minimum of the two p-values must be less than 0.0125, one-sided, to claim statistical significance. All analyses were based on intention-to-treat.

[2] = Clinical pharmacokinetics and pharmacodynamics of dabigatran etexilate; details: human, plasma, oral
[3] = system: patients with chronic atrial fibrillation; assay: PETRO study, phase 2 12-week dose finding study; assay type: in vivo, human; details: in vivo
Excerpt: Primary endpoints were bleeding events and changes in D-dimer. […] Minor bleeding was dose related.

[4] = in vivo; cited from earlier work
[5] = system: activated partial thromboplastin time (aPTT), ecarin clotting time, and thrombin clotting time; assay: Clotting time prolongation
[6] = system: patients with atrial fibrillation
Description: PETRO-Ex began while the PETRO study was ongoing and investigators were initially kept blinded to patient treatment group until PETRO was completed. Unblinding investigators to patient treatment was possible thereafter.
Data were summarized descriptively; no hypothesis was to be tested. Events were analyzed on the basis of the treatment at onset. Incidences were reported as number of patients with events as well as normalized to 100 patient years on the respective treatment.
Patients who completed PETRO on 50 mg b.i.d. were switched to 150 mg q.d. upon entry in the PETRO-Ex study (N=93 patients). […] Patients who were down titrated to 50 mg q.d. based on a glomerular filtration rate ≦50 mL/min during PETRO were excluded from the long-term trial; patients down-titrated in other dose levels remained on the q.d. treatment at that dose.
The former is represented by the number of thromboembolic events per 100 years, the latter by the number of bleeding events per 100 years.

[7] = individual patients with LFT abnormalities, one table line per patient

[H]/N=C(/N)c1ccc(NCc2nc3cc(C(=O)N(CCC(=O)O)c4ccccn4)ccc3n2C)cc1 [Dabigatran]
fraction unbound (Plasma protein binding): 0.65 to 0.75 | All Death, Rate ([1]; Dabigatran 110 mg b.i.d.): 3.74 /100 Person Years | Disabling or Fatal Stroke Modified Rankin 3-6, Rate ([1]; Dabigatran 110 mg b.i.d.): 0.95 /100 Person Years | First Hospitalization, Rate ([1]; Dabigatran 110 mg b.i.d.): 25.1 /100 Person Years | Myocardial Infarction, Rate ([1]; Dabigatran 110 mg b.i.d.): 0.73 /100 Person Years | Non-disabling Stroke Modified Rankin 0-2, Rate ([1]; Dabigatran 110 mg b.i.d.): 0.51 /100 Person Years | Pulmonary embolism, Rate ([1]; Dabigatran 110 mg b.i.d.): 0.12 /100 Person Years | Stroke or systemic embolism, Rate ([1]; Dabigatran 110 mg b.i.d.): 1.55 /100 Person Years | Stroke, Hemorrhagic, Rate ([1]; Dabigatran 110 mg b.i.d.): 0.12 /100 Person Years | Stroke, Rate ([1]; Dabigatran 110 mg b.i.d.): 1.45 /100 Person Years | Vascular Death, Rate ([1]; Dabigatran 110 mg b.i.d.): 2.42 /100 Person Years | All Death, RR ([1]; Dabigatran 110 mg vs. Warfarin): 0.90 | Disabling or Fatal Stroke Modified Rankin 3-6, RR ([1]; Dabigatran 110 mg vs. Warfarin): 0.94 | First Hospitalization, RR ([1]; Dabigatran 110 mg vs. Warfarin): 0.92 | Myocardial Infarction, RR ([1]; Dabigatran 110 mg vs. Warfarin): 1.35 | Non-disabling Stroke Modified Rankin 0-2, RR ([1]; Dabigatran 110 mg vs. Warfarin): 0.87 | Pulmonary embolism, RR ([1]; Dabigatran 110 mg vs. Warfarin): 1.26 | Stroke or systemic embolism, RR ([1]; Dabigatran 110 mg vs. Warfarin): 0.91 | Stroke, Hemorrhagic, RR ([1]; Dabigatran 110 mg vs. Warfarin): 0.31 | Stroke, Ischemic or Unspecified, RR ([1]; Dabigatran 110 mg vs. Warfarin): 1.12 | Stroke, RR ([1]; Dabigatran 110 mg vs. Warfarin): 0.92 | Vascular Death, RR ([1]; Dabigatran 110 mg vs. Warfarin): 0.90 | All Death, Rate ([1]; Dabigatran 150 mg b.i.d.): 3.63 /100 Person Years | Disabling or Fatal Stroke Modified Rankin 3-6, Rate ([1]; Dabigatran 150 mg b.i.d.): 0.67 /100 Person Years | First Hospitalization, Rate ([1]; Dabigatran 150 mg b.i.d.): 26.7 /100 Person Years | Myocardial Infarction, Rate ([1]; Dabigatran 150 mg b.i.d.): 0.74 /100 Person Years | Non-disabling Stroke Modified Rankin 0-2, Rate ([1]; Dabigatran 150 mg b.i.d.): 0.36 /100 Person Years | Pulmonary embolism, Rate ([1]; Dabigatran 150 mg b.i.d.): 0.15 /100 Person Years | Stroke or systemic embolism, Rate ([1]; Dabigatran 150 mg b.i.d.): 1.11 /100 Person Years | Stroke, Hemorrhagic, Rate ([1]; Dabigatran 150 mg b.i.d.): 0.10 /100 Person Years | Stroke, Ischemic or Unspecified, Rate ([1]; Dabigatran 150 mg b.i.d.): 0.92 /100 Person Years | Stroke, Rate ([1]; Dabigatran 150 mg b.i.d.): 1.01 /100 Person Years | Vascular Death, Rate ([1]; Dabigatran 150 mg b.i.d.): 2.27 /100 Person Years | All Death, RR ([1]; Dabigatran 150 mg vs. 110 mg): 0.97 | Disabling or Fatal Stroke Modified Rankin 3-6, RR ([1]; Dabigatran 150 mg vs. 110 mg): 0.70 | First Hospitalization, RR ([1]; Dabigatran 150 mg vs. 110 mg): 1.06 | Myocardial Infarction, RR ([1]; Dabigatran 150 mg vs. 110 mg): 1.02 | Non-disabling Stroke Modified Rankin 0-2, RR ([1]; Dabigatran 150 mg vs. 110 mg): 0.71 | Pulmonary embolism, RR ([1]; Dabigatran 150 mg vs. 110 mg): 1.27 | Stroke or systemic embolism, RR ([1]; Dabigatran 150 mg vs. 110 mg): 0.72 | Stroke, Hemorrhagic, RR ([1]; Dabigatran 150 mg vs. 110 mg): 0.85 | Stroke, Ischemic or Unspecified, RR ([1]; Dabigatran 150 mg vs. 110 mg): 0.68 | Stroke, RR ([1]; Dabigatran 150 mg vs. 110 mg): 0.70 | Vascular Death, RR ([1]; Dabigatran 150 mg vs. 110 mg): 0.94 | All Death, RR ([1]; Dabigatran 150 mg vs. Warfarin): 0.88 | Disabling or Fatal Stroke Modified Rankin 3-6, RR ([1]; Dabigatran 150 mg vs. Warfarin): 0.66 | First Hospitalization, RR ([1]; Dabigatran 150 mg vs. Warfarin): 0.97 | Myocardial Infarction, RR ([1]; Dabigatran 150 mg vs. Warfarin): 1.38 | Non-disabling Stroke Modified Rankin 0-2, RR ([1]; Dabigatran 150 mg vs. Warfarin): 0.62 | Pulmonary embolism, RR ([1]; Dabigatran 150 mg vs. Warfarin): 1.61 | Stroke or systemic embolism, RR ([1]; Dabigatran 150 mg vs. Warfarin): 0.66 | Stroke, Hemorrhagic, RR ([1]; Dabigatran 150 mg vs. Warfarin): 0.26 | Stroke, Ischemic or Unspecified, RR ([1]; Dabigatran 150 mg vs. Warfarin): 0.76 | Stroke, RR ([1]; Dabigatran 150 mg vs. Warfarin): 0.64 | Vascular Death, RR ([1]; Dabigatran 150 mg vs. Warfarin): 0.84 | Mortality rate, death from any cause ([1]; dabigatran 110 mg twice daily): 3.74 % per year | Rate of hemorrhagic stroke ([1]; dabigatran 110 mg twice daily): 0.12 % per year | Rate of myocardial infarction ([1]; dabigatran 110 mg twice daily): 0.73 % per year | Rate of net benefit-risk outcome (major vascular events, major bleeding and death) ([1]; dabigatran 110 mg twice daily): 7.37 % per year | Rate of the primary outcome, stroke or systemic embolism ([1]; dabigatran 110 mg twice daily): 1.55 % per year | Mortality rate, death from any cause ([1]; dabigatran 150 mg twice daily): 3.63 % per year | Rate of hemorrhagic stroke ([1]; dabigatran 150 mg twice daily): 0.10 % per year | Rate of myocardial infarction ([1]; dabigatran 150 mg twice daily): 0.74 % per year | Rate of net benefit-risk outcome (major vascular events, major bleeding and death) ([1]; dabigatran 150 mg twice daily): 7.22 % per year | Rate of the primary outcome, stroke or systemic embolism ([1]; dabigatran 150 mg twice daily): 1.11 % per year | Hepatotoxicity ([1]; human, in vivo): no evidence of hepatotoxicity | Stroke, systemic embolism, pulmonary embolism, myocardial infarction death or major bleed, Rate ([1]; Dabigatran 110 mg b.i.d.): 7.37 /100 Person Years | Stroke, systemic embolism, pulmonary embolism, myocardial infarction death or major bleed, RR ([1]; Dabigatran 110 mg vs. Warfarin): 0.92 | Stroke, systemic embolism, pulmonary embolism, myocardial infarction death or major bleed, Rate ([1]; Dabigatran 150 mg b.i.d.): 7.22 /100 Person Years | Stroke, systemic embolism, pulmonary embolism, myocardial infarction death or major bleed, RR ([1]; Dabigatran 150 mg vs. 110 mg): 0.98 | Stroke, systemic embolism, pulmonary embolism, myocardial infarction death or major bleed, RR ([1]; Dabigatran 150 mg vs. Warfarin): 0.90 | half-life [2]: 12 to 17 h | Change in D-dimer levels [3]: comparable to warfarin | Serum half-life [4]: 12 to 17 h | Prolongation of aPTT, ecarin clotting time, and thrombin clotting time [5]: dose dependent prolongation | Fatal major bleeds, number ([6]; 150 mg b.i.d.): 4 | Fatal major bleeds, number ([6]; 300 mg q.d.): 1 | Fatal bleeding events ([6]; all doses): 0.5 % per year | Fatal major bleeds, number ([6]; all doses): five | Intracranial bleed rate ([6]; all doses): 0.4 % per year | LFT abnormality ALT/ULN [6, 7]: >5x xULN (4×) and >5x^# xULN (2×) and >3x xULN (5×) and >3x^# xULN | LFT abnormality AST/ULN [6, 7]: >5x^# xULN (4×) and >5x xULN (4×) and >3x xULN (5×)

Reference: patent US20110251160A1 (priority 2008, published 2011)
